For orientation: EC50 means the midpoint of the concentration-response curve. Low values mean greater potency, high ones weaker potency. By Kd is commonly meant the concentration at which binding is half-saturated.

The target of data set [1] is T1, Rev-Erb alpha (Homo sapiens, UniProt P20393).
T1 sequence (P20393 284-614 limits assumed): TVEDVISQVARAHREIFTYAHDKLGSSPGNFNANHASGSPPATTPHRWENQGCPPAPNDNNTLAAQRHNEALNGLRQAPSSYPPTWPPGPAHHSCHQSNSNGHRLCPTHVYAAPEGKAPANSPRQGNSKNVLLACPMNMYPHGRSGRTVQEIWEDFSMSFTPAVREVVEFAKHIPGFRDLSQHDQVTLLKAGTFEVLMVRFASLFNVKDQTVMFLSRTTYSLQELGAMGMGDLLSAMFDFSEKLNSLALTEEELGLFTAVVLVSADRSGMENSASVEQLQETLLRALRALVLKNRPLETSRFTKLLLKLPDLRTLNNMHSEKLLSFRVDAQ
As to the kind of experiment: M2H (mammalian two-hybrid) cellular activation assay of Rev-Erb alpha. Format: cell-based. To be noted: M2H assay, HEK293 cells, Gal4-Rev-Erb alpha / VP16-NCoR, luciferase reporter. The procedure, abridged: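 Six-point dose-response, 18 h, 37 °C, serum-free, in HEK293 cells carrying a Gal4-RE luciferase reporter with Gal4-Rev-Erb alpha or beta plus VP16-NCoR (corepressor interaction readout). EC50 and TOP activation (%) derived from luminescence across four experiments.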
For orientation: A reporter such as luciferase makes a cellular process visible.

Data set [2] deals with db/db mice. The data set can be described thus: In vivo evaluation in db/db mice: glycemia, HbA1c, plasma triglycerides. The note with it: once daily by gavage, 28 days. As for the experimental part: 7-weeks-old male db/db mice were purchased from Charles River (France). Mice were 9-weeks-old at the beginning of the study. All mice were housed 2 per cage under controlled conditions of humidity, lighting and temperature. They had free access to food (R03, SAFE) and water.
Mice were randomized according to their body weight, and the non-fasting glycaemia, and assigned to 3 different groups: • Group 1: Control_Vehicle n=8 • Group 2: Cpd-4-39 25 mg/kg n=8 • Group 3: Cpd-4-39 100 mg/kg n=8 Treatments and Sample Analysis
The treatments were administered once daily, by gavage (10 mL/kg) for 28 consecutive days (unless otherwise mentioned). For oral administrations, compound was suspended in CMC 1%+Tween 80 0.1%.
Non fasting blood glucose level was determined from tail vein blood using a glucometer (Smart Chek, Kitvia), Blood samples were withdrawn under anesthesia by retro-orbital puncture at the end of the treatment period. Tubes containing blood were rapidly centrifuged after collection (15 minutes at 4,000 rpm/4° C.) and the plasma fraction was collected. Plasma aliquots were stored at −20° C. for further analyses.
The blood concentration of glycosylated hemoglobin A1c was determined using the Randox kit for Daytona automate (Randox, cat# HA 3830) according to the manufacturer's recommendations. Total hemoglobin and HbA1c concentrations were measured and the HbA1c result was expressed as a percentage of the total hemoglobin concentration.
The triglyceride content of plasma was measured using the Randox kit for Daytona automate (Randox, cat# TR 3823) according to the manufacturer's recommendations. In this protocol, the triglycerides are hydrolyzed by a lipase. The resulting glycerol concentration is then measured by an enzymatic method and spectrophotometric measurement. Results are expressed in mg/dL. • Oral Glucose Tolerance Test
At the end of the treatment period, animals were anesthetized with isoflurane and then sacrificed by cervical dislocation. Liver, quadriceps muscle and epididymal adipose tissues were collected. […]

Data set [3] relates to Bmal1. As to the kind of experiment: Gene expression of Rev-Erb alpha target gene Bmal1 in tissues of treated db/db mice. The class given is in vivo. The note with it: 25 and 100 mpk, adipose tissue, muscle, liver. From the text: At the end of the treatment period, animals were anesthetized with isoflurane and then sacrificed by cervical dislocation. Liver, quadriceps muscle and epididymal adipose tissues were collected. The Student's t-test was used to test for statistical differences between drug and vehicle treatments when a single dose of drug was used while ANOVA followed by Dunnett's Multiple Comparison post hoc test was used for dose responses.
Gene expression studies have been performed on mRNA isolated from different metabolic tissues such as liver, adipose tissue and skeletal muscle. […] is considered as a target gene of Rev-Erba. Activation of Rev-Erba activity should then translate in a reduction of […] gene expression.

For data set [4], the system named is db/db mice. As to the kind of experiment: Oral glucose tolerance test in db/db mice. The class given is in vivo. The note with it: 50 mpk. As for the experimental part: Oral glucose tolerance test (OGTT) was performed as followed, at day 35 of treatment, after a 16-hour fasting period, an oral glucose load was administered at T=0 (2 g/kg of glucose, 10 mL/kg) and glycemia was measured at the tail vein at T=15, 30, 60, 90, 120 & 180 minutes.
Oral glucose tolerance test is a widely used assay perform to assess the body's tolerance to an orally glucose bolus, it is considered as a good marker of insulin resistance and diabetes. […] Improvement of the body's insulin sensitivity is illustrated on FIG. 3(b).

Data set [5] has as its system Diet Induced Obesity mice. As to the kind of experiment: In vivo evaluation in Diet Induced Obesity mice (high fat diet): glycemia, Hb1Ac. The arrangement: species or system C57BI/6J mice. The note with it: diet induce obese mice, 45 mpk, once daily by gavage, 28 days. The protocol:
Four week-old male C57BI/6J mice (from Janvier, France) were fed with an high fat diet (D12492, SSNIFF) for up to 10 weeks. All mice were housed 2 per cage under controlled conditions of humidity, lighting and temperature. At the end of the 10 week of diets, mice were randomized according to their body weight gain, body weight, and their non-fasting glycaemia. The treatments with compound of interest were administered once daily, by gavage (10 mL/kg) for 28 consecutive days. For oral administrations, the drugs were suspended in CMC 1%+Tween 80 0.1%.
As previously described animals were assayed for their non fasting glycaemia and biochemical parameters such as Hb1Ac.
At the end of the treatment period, animals were anesthetized with isoflurane and then sacrificed by cervical dislocation. The Student's t-test was used to test for statistical differences between drug and vehicle treatments when a single dose of drug was used.

The target of data set [6] is T2, Rev-Erb alpha (Homo sapiens, UniProt P20393).
T2 sequence (P20393 1-614): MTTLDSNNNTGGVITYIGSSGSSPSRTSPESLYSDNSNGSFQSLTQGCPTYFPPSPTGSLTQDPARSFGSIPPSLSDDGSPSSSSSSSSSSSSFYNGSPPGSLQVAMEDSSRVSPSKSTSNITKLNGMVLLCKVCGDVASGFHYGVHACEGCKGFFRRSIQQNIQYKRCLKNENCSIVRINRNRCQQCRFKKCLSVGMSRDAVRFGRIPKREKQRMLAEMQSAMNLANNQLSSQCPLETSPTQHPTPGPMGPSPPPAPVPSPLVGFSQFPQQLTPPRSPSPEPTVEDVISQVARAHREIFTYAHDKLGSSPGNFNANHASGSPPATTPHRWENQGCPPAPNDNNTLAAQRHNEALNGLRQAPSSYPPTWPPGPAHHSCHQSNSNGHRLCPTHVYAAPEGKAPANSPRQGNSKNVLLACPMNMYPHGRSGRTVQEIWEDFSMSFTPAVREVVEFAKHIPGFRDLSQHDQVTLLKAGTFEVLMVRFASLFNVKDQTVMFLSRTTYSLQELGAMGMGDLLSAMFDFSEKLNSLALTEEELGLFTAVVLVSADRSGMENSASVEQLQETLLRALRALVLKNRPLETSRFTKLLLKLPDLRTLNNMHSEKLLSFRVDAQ
To be noted: FRET assay; Meng Q J et al., 2008; cited from earlier work.

For data set [7], the system named is Bmal1. To be noted: cell culture, dose-dependent; cited from earlier work.
A further data set deals with 3T3-L1 cells. The note with it: lipid accumulation and adipogenic genes; cited from earlier work.
For data set [8] the following is noted: high clearance and rapid metabolism; cited from earlier work.
Data set [9] deals with T2, Rev-Erb alpha. To be noted: Moore J T et al., 2006; cited from earlier work.

As for `FC(F)(F)c1ccc(-c2cccnc2)c(Oc2ccc3nnc(Cl)n3n2)c1`, the EC50 on Rev-Erb alpha [1] fell in the range of 0.1 to 1 µM. In the data set with db/db mice [2] (25 and 100 mpk), the Circulating triglycerides entry is listed as “reduced” and the HbA1c result is reported as “significantly reduced”. The glycemia entry in the data set on db/db mice [2] (100 mpk, compared to control mice) is given as “significantly reduced”. The “Small expression in the studied organs (Bmal1 gene expression, FIGS. 13)” value with Bmal1 [3] is listed as “significant inhibition”. Moreover, in the data set with db/db mice [4] (OGTT), the “area under the curve, glucose tolerance” value is listed as “Cpd-4-39 dependent effect on glucose tolerance”. Also, the “evolution of blood glucose in oral glucose tolerance test” value in the data set on db/db mice [4] (day 35, 16-hour fasting, 2 g/kg glucose) is recorded as “improved evolution of their blood glucose”.

`FC(F)(F)c1ccc(-c2cncnc2)c(Oc2ccc3nnc(Cl)n3n2)c1` [Cpd.4-99, 3-chloro-6-(2-(pyrimidin-5-yl)-5-(trifluoromethyl)phenoxy)-[1,2,4]triazolo[4,3-b]pyridazine]: on Rev-Erb alpha [1], the half-maximal effective concentration (EC50) lay in the range of 1 to 6 µM. Further, in data set [5], the Hb1Ac levels result is “significantly reduced” and the “non fasting blood glucose concentration” value is recorded as “significantly reduce”.

For `CC(C)(C)OC(=O)CN(Cc1ccc(Cl)cc1)Cc1ccc([N+](=O)[O-])s1` [GSK4112], the “interaction of NCoR-derived peptide with Rev-Erb alpha” value at Rev-Erb alpha [6] is on record as “dose-dependently increasing the interaction”. Further, the Bmal1 expression result with Bmal1 [7] is listed as “decreases Bmal1 expression”. In the data set on 3T3-L1 cells, the adipogenesis result is “induces adipogenesis”. Further, the pharmacokinetic properties result in [8] is reported as “poor pharmacokinetic properties”.

`C=CC1=C(C)c2cc3[n-]c(cc4[n-]c(cc5nc(cc1n2)C(C)=C5C=C)c(C)c4CCC(=O)O)c(CCC(=O)O)c3C.[Fe+2]` [Heme]: the Kd on Rev-Erb alpha [9] was 2 to 3 µM.

These data come from US9586963B2 (GENFIT, priority 2011, dated 2017).
